Earlier results as cited in patent US20120046368A1, “METHOD FOR PURIFYING 3,4-DIHYDROXYPHENYLGLYCOL (DHPG) FROM PLANT PRODUCTS” (CONSEJO SUPERIOR DE INVESTIGACIONES CIENTIFICAS, priority 2008, published 2012).

Legend:
[1] = fold greater than ascorbic acid or HT
[2] = compared with HT

## OCC(O)c1ccc(O)c(O)c1 (centres unmarked) [DHPG, 3,4-dihydroxyphenylglycol]
[1]
  antioxidant efficacy in water relative to ascorbic acid or HT: 2-3 times
[2]
  antioxidant efficacy in a lipid medium relative to HT: twice that of HT
